≈ marks a conversion by molar mass, not a printed value.
Legend:
[1] = molecular target: T1, Cystic fibrosis transmembrane conductance regulator (Homo sapiens, UniProt P13569, F508DEL); experiment: Activation of CFTR F508del mutant (unknown origin)
[2] = Intrinsic clearance in mouse liver microsomes by HPLC-MS/MS analysis; assay type: ADME, Microsome; conditions: read-out: CLH (converted)
[3] = Intrinsic clearance in rat liver microsomes by HPLC-MS/MS analysis; assay type: ADME, Microsome; conditions: read-out: CLH (converted)
[4] = Clearance in rat liver microsomes by LC-MS/MS analysis; assay type: ADME, Microsome
[5] = molecular target: T2, Nuclear receptor subfamily 1 group I member 2 (Homo sapiens, UniProt O75469); experiment: Activation of PXR (unknown origin) at 10 uM relative to rifampicin
T2 sequence (O75469 whole entry): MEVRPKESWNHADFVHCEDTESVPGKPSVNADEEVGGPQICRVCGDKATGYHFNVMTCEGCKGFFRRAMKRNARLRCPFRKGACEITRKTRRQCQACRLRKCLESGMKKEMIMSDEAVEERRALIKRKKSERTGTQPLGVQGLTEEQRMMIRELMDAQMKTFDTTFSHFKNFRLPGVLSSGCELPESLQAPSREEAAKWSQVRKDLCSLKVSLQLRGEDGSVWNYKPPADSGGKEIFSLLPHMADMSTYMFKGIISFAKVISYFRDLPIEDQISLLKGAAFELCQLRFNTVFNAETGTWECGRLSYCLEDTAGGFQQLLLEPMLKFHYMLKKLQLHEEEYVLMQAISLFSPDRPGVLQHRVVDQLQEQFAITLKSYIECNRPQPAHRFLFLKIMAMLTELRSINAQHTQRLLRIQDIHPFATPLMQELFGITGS

[6] = Volume of distribution at steady state in rat at 3 mg/kg, iv measured for 24 hrs by LC-MS/MS analysis; assay type: ADME, organism-based; conditions: in vivo, read-out: Vdss
[7] = Half life in rat at 3 mg/kg, iv measured for 24 hrs by LC-MS/MS analysis; assay type: ADME, organism-based; conditions: in vivo
[8] = molecular target: T1, Cystic fibrosis transmembrane conductance regulator; experiment: Potentiation of VX-809-induced corrector activity at CFTR F508del mutant in patient derived human HBE cells; assay type: cell-based
[9] = Solubility of compound at pH 6.8 incubated for 12 hrs by HPLC analysis; assay type: physicochemical; conditions: buffer
[10] = Metabolic stability in rat liver microsomes assessed as intrinsic clearance; assay type: ADME, Microsome
[11] = molecular target: T1, Cystic fibrosis transmembrane conductance regulator; experiment: Potentiation of CFTR F508del mutant (unknown origin)
[12] = Plasma protein binding in human; assay type: ADME, cell-free
[13] = Volume of distribution at steady state in rat at 1 mg/kg, iv; assay type: ADME, organism-based; conditions: in vivo, read-out: Vdss
[14] = Clearance in rat at 1 mg/kg, iv; assay type: ADME, organism-based; conditions: in vivo
[15] = Mean residence time in rat at 1 mg/kg, iv; assay type: ADME, organism-based; conditions: in vivo
[16] = AUC in rat at 3 mg/kg, po; conditions: in vivo
[17] = molecular target: T1, Cystic fibrosis transmembrane conductance regulator; experiment: Potentiation of CFTR F508del mutant (unknown origin) expressed in NIH3T3 cells; assay type: cell-based
[18] = molecular target: T3, PXR (nuclear receptor subfamily 1 group I member 2) (Homo sapiens, UniProt O75469); experiment: Activation of PXR (unknown origin) at 10 uM relative to control; conditions: read-out: Activity
T3 sequence (O75469 whole entry): T2 sequence (O75469 whole entry)

[19] = Apparent permeability across apical to basolateral side in MDCK cells; assay type: ADME, cell-based, Canis lupus familiaris; conditions: dog

T1 sequence (P13569 as listed by the source): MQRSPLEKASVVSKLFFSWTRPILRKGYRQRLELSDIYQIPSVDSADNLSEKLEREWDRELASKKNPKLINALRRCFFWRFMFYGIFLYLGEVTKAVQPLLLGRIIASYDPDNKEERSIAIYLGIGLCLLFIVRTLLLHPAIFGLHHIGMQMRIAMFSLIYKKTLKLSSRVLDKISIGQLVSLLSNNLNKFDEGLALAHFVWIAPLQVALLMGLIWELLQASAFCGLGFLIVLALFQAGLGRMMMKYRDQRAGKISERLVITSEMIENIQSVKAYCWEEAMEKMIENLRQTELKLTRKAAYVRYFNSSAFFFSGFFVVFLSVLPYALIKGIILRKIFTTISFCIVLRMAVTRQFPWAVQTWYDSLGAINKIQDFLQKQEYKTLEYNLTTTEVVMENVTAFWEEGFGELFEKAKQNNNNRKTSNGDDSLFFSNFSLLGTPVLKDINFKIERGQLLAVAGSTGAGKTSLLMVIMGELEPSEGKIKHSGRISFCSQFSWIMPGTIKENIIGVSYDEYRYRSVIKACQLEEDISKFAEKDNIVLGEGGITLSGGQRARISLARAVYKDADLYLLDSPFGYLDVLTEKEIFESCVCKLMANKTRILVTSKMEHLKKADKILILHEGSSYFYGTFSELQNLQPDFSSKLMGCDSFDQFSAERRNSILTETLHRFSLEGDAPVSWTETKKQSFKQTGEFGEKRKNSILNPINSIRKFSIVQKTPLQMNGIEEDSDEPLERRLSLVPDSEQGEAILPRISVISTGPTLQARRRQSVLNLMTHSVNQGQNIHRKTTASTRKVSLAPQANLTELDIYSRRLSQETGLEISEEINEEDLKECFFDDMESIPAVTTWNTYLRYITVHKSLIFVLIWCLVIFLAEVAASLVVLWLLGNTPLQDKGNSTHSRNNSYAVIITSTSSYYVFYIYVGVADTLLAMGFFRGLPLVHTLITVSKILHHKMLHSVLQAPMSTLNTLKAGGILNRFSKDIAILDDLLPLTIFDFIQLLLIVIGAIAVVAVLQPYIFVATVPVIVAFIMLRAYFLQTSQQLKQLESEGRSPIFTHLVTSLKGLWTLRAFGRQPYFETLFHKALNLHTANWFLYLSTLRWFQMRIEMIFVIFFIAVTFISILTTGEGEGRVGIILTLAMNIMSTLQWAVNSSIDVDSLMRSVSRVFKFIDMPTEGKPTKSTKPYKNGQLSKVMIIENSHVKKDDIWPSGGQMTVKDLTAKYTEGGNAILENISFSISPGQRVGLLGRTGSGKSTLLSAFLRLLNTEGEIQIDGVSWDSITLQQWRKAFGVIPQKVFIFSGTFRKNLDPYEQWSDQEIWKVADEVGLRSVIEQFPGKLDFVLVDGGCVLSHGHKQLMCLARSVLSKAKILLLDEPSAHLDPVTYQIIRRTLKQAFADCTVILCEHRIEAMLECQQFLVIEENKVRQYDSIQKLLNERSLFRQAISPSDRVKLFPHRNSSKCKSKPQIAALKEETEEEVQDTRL

## CC1(C)Cc2c(sc(NC(=O)c3ccccc3O)c2C(N)=O)C(C)(C)O1
[1]
  EC50: 0.015 µM

## CC1(C)Cc2c(sc(NC(=O)[C@H](O)C(C)(C)C)c2C(N)=O)C(C)(C)O1
[1]
  EC50: 0.003 µM

## CC1(C)Cc2c(sc(NC(=O)C3(CO)CC3)c2C(N)=O)C(C)(C)O1
[1]
  EC50: 0.0027 µM

## CC1(C)Cc2c(sc(NC(=O)[C@@H](O)C(C)(C)C)c2C(N)=O)C(C)(C)O1
[1]
  EC50: 0.127 µM

## Nc1cc(S(=O)(=O)c2ccccc2OC(F)(F)F)cnc1C(=O)NC[C@@H](O)C(F)(F)F
[1]
  EC50: < 0.00031 µM
[2]
  CLint scaled: 120 mL/min/kg
[3]
  CLint scaled: 45 mL/min/kg
[4]
  CLH: 9.83 mL/min/kg
[5]
  Activity: 12%
[6]
  Vd: 5.1 L/kg
[7]
  half-life: 6.7 h

## C[C@H](O)CNC(=O)c1ncc(S(=O)(=O)c2ccc(OC(F)(F)F)cc2)cc1N
[2]
  CLint scaled: 41.7 mL/min/kg
[3]
  CLint scaled: 20 mL/min/kg
[4]
  CLH: 1.3 mL/min/kg
[5]
  Activity: 10%
[6]
  Vd: 1.1 L/kg
[7]
  half-life: 8.9 h
[8]
  EC50: 0.0807 µM

## COC(=O)c1nc(-c2ccco2)c(C(F)(F)F)cc1N
[9]
  solubility at 12 h: 2 µg/mL (≈ 6.99 µM)
[10]
  CLint: 351 µL/min/mg
[11]
  EC50: 0.07 µM

## CNC(=O)c1nc(Br)c(C(F)(F)F)cc1N
[10]
  CLint: 100 µL/min/mg

## C[C@](O)(CNC(=O)c1nc(C(F)(F)F)c(C(F)(F)F)cc1N)C(F)(F)F
[9]
  solubility at 12 h: 230 µg/mL (≈ 576 µM)
[10]
  CLint: 7.38 µL/min/mg
[11]
  EC50: 0.01 µM
[12]
  PPB: 92.3%
[13]
  Vd: 6.4 L/kg
[14]
  clearance: 15 mL/min/kg
[15]
  MRT: 7.2 h

## Nc1cc(C(F)(F)F)c(Br)nc1C(=O)NCCC(F)(F)F
[9]
  solubility at 12 h: 170 µg/mL (≈ 447 µM)
[10]
  CLint: 55.8 µL/min/mg

## C[C@@H]1CN(c2nc(-n3ccc(OCC4(C(F)(F)F)CCC4)n3)ccc2C(=O)NS(=O)(=O)c2ccccc2)C(C)(C)C1
[1]
  EC50: 0.04 µM
[16]
  AUC: 2200 ng·h/mL

## C[C@@H]1CN(c2nc(-n3ccc(OCC4(C(F)(F)F)CC4)n3)ccc2C(=O)NS(=O)(=O)c2ccccc2)C(C)(C)C1
[1]
  EC50: 0.04 µM
[5]
  Activity: 19%
[16]
  AUC: 14700 ng·h/mL

## C[C@@H]1CN(c2nc(-n3ccc(OCCC4(C(F)(F)F)CC4)n3)ccc2C(=O)NS(=O)(=O)c2cccc(F)c2)C(C)(C)C1
[1]
  EC50: 0.05 µM
[16]
  AUC: 2700 ng·h/mL

## C[C@@H]1CN(c2nc(-n3ccc(OCC(C)(C)C)n3)ccc2C(=O)NS(=O)(=O)c2cccnc2N)C(C)(C)C1
[1]
  EC50: 0.06 µM
[5]
  Activity: 2%
[16]
  AUC: 1200 ng·h/mL

## C[C@@H]1CN(c2nc(-n3ccc(OCC(O)C4(C(F)(F)F)CC4)n3)ccc2C(=O)NS(=O)(=O)c2ccccc2)C(C)(C)C1 (some centres undefined)
[1]
  EC50: 0.24 µM

## CCOc1cccc([C@H]2C[C@@]2(C(=O)NS(=O)(=O)c2cccc3nc(C)ccc23)c2cc(C)ccc2OC)n1
[1]
  EC50: 0.005 µM

## CC(O)(c1nnc(-c2ncc(S(=O)(=O)c3ccc(OC(F)(F)F)cc3)cc2N)o1)C(F)(F)F (centres undefined)
[1]
  EC50: 0.0018 µM

## Cc1nn(C)c(C)c1S(=O)(=O)NC(=O)c1ccc(-n2ccc(OCC(C)(C)C(F)(F)F)n2)nc1N1C[C@@H](C)CC1(C)C
[17]
  EC50: 0.09 µM
[18]
  activity at 10 µM: 1%
[19]
  Papp A→B: 8.8 ×10⁻⁶ cm/s

## CCOc1cccc([C@@H]2C[C@]2(C(=O)NS(=O)(=O)c2cccc3nc(C)ccc23)c2cc(C)ccc2OC)n1
[1]
  EC50: 0.09 µM

## CCc1ccccc1-c1nc(NS(=O)(=O)c2cccc(N(CCCC(=O)O)C(C)C)n2)ccc1C(F)(F)F
[1]
  EC50: 0.002 µM

## CCOc1ccc(CC)cc1[C@@]1(C(=O)NS(=O)(=O)c2cccc3nc(C)ccc23)CCCO1
[1]
  EC50: 0.03 µM

## COc1ccc(C)cc1[C@]1(C(=O)NS(=O)(=O)c2cccc3nc(C)ccc23)C[C@@H](c2ccccc2)CO1
[1]
  EC50: 0.03 µM

## COc1ccc(Br)c2c1CCCC2C(=O)NS(=O)(=O)c1cccc2ncccc12 (centres undefined)
[1]
  EC50: < 3 µM

## Cc1ccc(C2CCCCC2)c(OC2(C(=O)NS(=O)(=O)c3cccc(N4CCC(N)(C(F)(F)F)CC4)n3)CC2)c1
[1]
  EC50: 0.004 µM

## Cc1ccc(C2CCCCC2)c(OC2(C(=O)NS(=O)(=O)c3cccc(N4CCOC[C@@H]4C)n3)CC2)c1
[1]
  EC50: 0.08 µM

## Cc1nn(C)cc1S(=O)(=O)NC(=O)c1ccc(-n2ccc(OCC3(C(F)(F)F)CC3)n2)nc1N1C[C@@H](C)CC1(C)C
[17]
  EC50: 0.22 µM
[18]
  activity at 10 µM: 4%
[19]
  Papp A→B: 7.1 ×10⁻⁶ cm/s

## COc1ccc(C2CCC2)cc1C1(C(=O)NS(=O)(=O)c2cccc3ccccc23)CC1
[1]
  EC50: < 3 µM

## COc1ccc(Br)c2c1C(C(=O)NS(=O)(=O)c1cccc3ccccc13)CC2 (centres undefined)
[1]
  EC50: < 3 µM
